Assay results: paper PMC9982066, “Inhibition of Ehrlichia chaffeensis infection by cell-permeable macrocyclic peptides that bind type IV secretion effector Etf-1” (PNAS Nexus, 2023)
Starred links: 1 amine or outer side, 2 acyl side, 3 side chain; linkers in the order of their positions; H or OH if unused. Positions of bridges follow the written chain, without caps; N, C: chain ends. Non-standard residues stand in square brackets, D forms with d. Residues, ends and D or L forms follow the SMILES beside them. Trimesoyl = O=C(c1cc(C(=O)[*:2])cc(C(=O)[*:3])c1)[*:1]; Phe(4-Cl) = N[C@@H](Cc1ccc(Cl)cc1)C(=O)O; Phe(4-F) = N[C@@H](Cc1ccc(F)cc1)C(=O)O; d2Nal = N[C@H](Cc1ccc2ccccc2c1)C(=O)O; Orn = NCCC[C@H](N)C(=O)O; Dap = NC[C@H](N)C(=O)O

What was measured:
Etf-1 [1] = target: T1, Etf-1 (Ehrlichia chaffeensis, UniProt Q2GG12); test: biochemical; assay type: binding; settings: unlabeled competitor peptides vs FAM-B7-133-8
Protocol: (§1) Fig. 2. Determination of binding affinity of Etf-1-binding peptides by FP assay. […] FAM-labeled peptide (50 nM) was incubated with serially diluted Etf-1 (starting from 25–30 μM in PBS, pH 7.4, supplemented with 5 mM DTT and 0.01% Triton X-100) for 1 h at RT. FP values were measured on a Tecan Infinite M1000 Pro plate reader. Titration curves (n ≥ 3) were fitted using GraphPad Prism and analyzed with TraceDrawer to calculate dissociation constants (KD). […] Data were analyzed using GraphPad Prism and fitted to a four-parameter variable slope equation to determine IC50 values.
Serial dilutions of competitor peptide (0-20 μM) were prepared from DMSO stock solutions into PBS containing 0.01% Triton-X100 and 2 mM TCEP and added to aliquots of the equilibrated Etf-1/probe solution. After incubation for 1 h in the dark and with gentle mixing, 20 μL of each sample was transferred into 384-well black-on-black microplates and FP was measured using a TECAN Infinite M1000 plate reader. Data were analyzed using GraphPad PRISM ver. 8.0 and fit to a four-parameter variable slope equation to determine IC50 values. IC50 values reported are the mean ± SD of n = 2–4 independent experiments.

E. chaffeensis [2] = test: morphological examination of E. chaffeensis infection of THP-1 cells by Diff-Quik staining; settings: THP-1 cells, Fig. S4 (with Figs. 5, S3)
Protocol: Ehrlichia chaffeensis Arkansas strain ([43]) was cultured in THP-1 cells (ATCC, Manassas, VA, USA) in RPMI 1640 medium (Corning, Manassas, VA, USA) supplemented with 8% FBS (Atlanta Biologicals, Flowery Branch, GA, USA) and 4 mM L-glutamine (at 37°C under 5% CO2 in a humidified atmosphere. THP-1 cells were seeded at 1 × 10^5 cells/well (in 1.5-mL RPMI 1640 culture medium with 8% FBS, 4 mM L-Gln) in a 12-well plate, then infected with host cell-free E. chaffeensis at an MOI (multiplicity of infection, or numbers of bacteria per cell) of ∼30. Cells were cultured in a humidified incubator with 5% CO2 and 95% air. No antibiotic was used throughout the study. At 0.5 h post infection (pi), cells were incubated with 1–10 μM of peptides or with an equal volume of DMSO (solvent control, 2 μL per mL medium). At 2 days pi, cells were washed with 1 mL of PBS, and two drops of cells were cytospun onto glass slides by a Shandon Cytospin 4 cytocentrifuge (Thermo Fisher Scientific), then fixed and stained with HEMA 3 staining solutions (Thermo Fisher Scientific). Ehrlichia infection was observed and images were captured by a SPOT RT digital camera (Diagnostic Instruments, Sterling Heights, MI, USA) coupled to a Nikon Eclipse E400 microscope (Nikon, Melville, NY, USA).

BECN1 binding to Etf-1 = test: streptavidin magnetic beads pull-down of BECN1 with biotin-Etf-1, Western blot; assay type: biochemical; settings: 10 µM peptide; for BECN1/Etf-1 Ratio: band intensities, DMSO control set as 1, Fig. 8B
Protocol: Fig. 8.
Streptavidin magnetic beads (15 µL, Pierce, Rockford, IL, USA) were washed with 1 mL of Bind/Wash buffer (25 mM Tris, pH 7.4; 250 mM NaCl, 0.1% Tween 20), and incubated with 0.15 µg ([…] final concentration) of biotinylated full-length Etf-1 protein in bind/wash buffer at 4°C overnight with end-to-end rotation. Beads were washed three times with Bind/Wash buffer, then incubated with Etf-1-binding macrocyclic peptides (10 µM) or DMSO control in Bind/Wash buffer at room temperature for 2 h. […] Beads were washed three times, and proteins were eluted from the beads with 50 µL of 2× SDS-sample buffer. […] Reacting bands were visualized with enhanced chemiluminescence by incubating the membrane with LumiGLO chemiluminescent reagent (Thermo Fisher Scientific). Images were captured by Amersham Imager 680 (GE Healthcare) and densitometry analysis was performed using ImagQuaNT (GE Healthcare). In each specimen, band intensities were normalized against those of actin as the loading control, and the ratios of the treatment group to the control group were calculated with the value in the control groups arbitrarily set as 1.0.

Etf-1 [3] = target: T1, Etf-1; test: FP assay of Etf-1 binding with FAM-labeled peptides
Protocol: The peptides were labeled at their C-terminus with carboxyfluorescein (FAM) through a β-Ala-β-Ala-Lys linker and evaluated for binding to Etf-1 by using a fluorescence polarization (FP) assay. […] This outcome is not unexpected, as screening OBOC libraries is often complicated by false positives, due to the presence of high ligand densities on library beads ([28]).
as §1
Etf-1 and macrocyclic peptides were serially diluted in PBS supplemented with 5 mM DTT and 0.01% Triton X-100 (v/v). FAM-labeled peptides (50 nM) were prepared from a 10-μM DMSO stock and incubated with serially diluted Etf-1 for 1 h at room temperature (RT). Twenty microliters of the solutions were transferred to a black 384-well plate (Greiner Bio-One) and FP values were measured on a Tecan Infinite M1000 Pro plate reader with excitation and emission wavelengths at 470 and 535 nm, respectively. Titration curves (n ≥ 3) were fitted using GraphPad Prism v8.0 (GraphPad, La Jolla, CA, USA), and analyzed with TraceDrawer software v1.8 (Ridgeview Instruments AB, Uppsala, Sweden) to calculate the dissociation constant (KD, in nM).

THP-1 cells = test: CellTiter-Glo luminescent cell viability assay; settings: 2-day treatment
Excerpt: THP-1 (human promyelocytic leukemia) cells are widely used as E. chaffeensis infection studies of human monocytes in vitro, since initial characterization of infection ([31]).
Fig. 4. Cytotoxicity and proteolytic stability of Etf-1-binding peptides. (A) Effect of Etf-1-binding peptides on the viability of THP-1 cells as determined by CellTiter-Glo luminescent assay. Relative luminescence was plotted as function of the peptide concentration, with the cell viability of DMSO control group set as 100%. (B) Plot of the amount of intact peptide remaining as a function of the incubation time in 25% human serum. All values are normalized to that of peptide at time 0 (100%).
Cytotoxicity of Etf-1-binding peptides was examined by CellTiter-Glo luminescent cell viability assay (Promega, Madison, WI, USA). THP-1 cells were seeded in a transparent 96-well plate at a density of 5 × 10^3 cells/well (100 μL in each well) in RPMI-1640 containing 10% FBS and 1% antibiotics and cultured overnight. Etf-1-binding peptides were serially diluted in DPBS from a DMSO stock and added to the cells with the final concentration of 0–25 μM and a constant final concentration of 0.5% DMSO (v/v). After incubation at 37°C with 5% CO2 for 46 h, the plate was removed and pre-equilibrated to RT before the addition of 100 μL of the CellTiter-Glo 2.0 reagent to each well. The plate was incubated for 15 min on a rotary shaker in the dark, and the luminescence was detected (1-s integration time) on a Tecan Infinite M1000 Pro microplate reader. Relative luminescence was plotted as function of the peptide concentration, with the cell viability of DMSO control group set as 100%.

E. chaffeensis [4] = test: E. chaffeensis infection of THP-1 cells, qPCR of 16S rRNA gene normalized to human actin; assay type: cell-based, Ehrlichia chaffeensis; settings: 10 μM, 2 days, vs DMSO control
Protocol: Therefore, we investigated whether these Etf-1-binding peptides can prevent the proliferation of E. chaffeensis inside host cells. THP-1 cells were infected with E. chaffeensis, then treated with the peptides at 30 min post infection (pi) for 2 days. Intracellular infection and proliferation of E. chaffeensis inside host THP-1 cells were assessed using quantitative PCR (qPCR) analysis based on E. chaffeensis 16S rRNA gene normalized by human actin (ACT) gene.
Fig. 5. Effects of Etf-1-binding peptides on E. chaffeensis infection of THP-1 cells. Ehrlichia chaffeensis-infected THP-1 cells at […] were incubated with 10 μM of Etf-1-binding macrocyclic peptide or DMSO control for 2 days.
No antibiotic was used throughout the study.
DNA was extracted from each sample using Qiagen blood mini kit according to the manufacturer's instructions (Qiagen, Valencia, CA, USA), and qPCR analysis was performed in an MX3000P qPCR instrument (Stratagene, San Diego, CA, USA) using SYBR Green Real-Time PCR Master Mix (Thermo Fisher Scientific) according to the manufacturer's instructions. Five-fold serial dilutions of the control group were used to generate a standard curve to calculate the relative copy numbers of E. chaffeensis 16S rRNA normalized against human actin genes using the MX3000P software from Stratagene as described previously ([18], [44]).

T1 sequence (Q2GG12 entry or part of it): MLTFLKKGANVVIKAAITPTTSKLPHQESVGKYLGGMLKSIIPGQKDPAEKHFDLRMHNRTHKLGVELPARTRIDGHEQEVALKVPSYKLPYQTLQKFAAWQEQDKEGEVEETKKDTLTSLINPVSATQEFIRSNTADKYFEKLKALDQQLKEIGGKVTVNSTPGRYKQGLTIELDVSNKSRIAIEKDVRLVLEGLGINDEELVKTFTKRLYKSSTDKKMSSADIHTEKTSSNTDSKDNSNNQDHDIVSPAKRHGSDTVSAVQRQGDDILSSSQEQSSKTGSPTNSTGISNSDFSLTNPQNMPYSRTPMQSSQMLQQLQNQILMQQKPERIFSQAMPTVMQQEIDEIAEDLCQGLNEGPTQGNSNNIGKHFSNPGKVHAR

Compound	competition for Etf-1 binding (Etf-1 [1])	E. chaffeensis infection (numbers and sizes of morulae) (E. chaffeensis [2])	BECN1/Etf-1 Ratio (BECN1 binding to Etf-1)	Kd (Etf-1 [3])	cell viability (THP-1 cells; 20 μM)	cytotoxicity (THP-1 cells; up to 10 μM)	inhibition of E. chaffeensis infection (E. chaffeensis [4])	disruption of BECN1 binding to Etf-1 (BECN1 binding to Etf-1; compared to DMSO control)
TMA-Tyr-Phg-Orn-ala-Ieu-Orn-leu-Dap-4-ClPhe-nal-arg-Arg-arg-Arg-Dap [Peptide B7-131-3]	Competition for Etf-1 binding was observed							
CC(C)C[C@H]1NC(=O)[C@H](Cc2ccc(F)cc2)NC(=O)[C@@H](Cc2ccc(O)cc2)NC(=O)[C@@H](CC(C)C)NC(=O)[C@@H](C(C)C)NC(=O)[C@H](Cc2ccc(O)cc2)NC(=O)c2cc3cc(c2)C(=O)NC[C@H](NC1=O)C(=O)N[C@@H](Cc1ccc(Cl)cc1)C(=O)N[C@H](Cc1ccc2ccccc2c1)C(=O)N[C@H](CCCNC(=N)N)C(=O)N[C@@H](CCCNC(=N)N)C(=O)N[C@H](CCCNC(=N)N)C(=O)N[C@@H](CCCNC(=N)N)C(=O)N[C@H](C(N)=O)CNC3=O [Peptide B7-133-9, TMA-Tyr-val-leu-tyr-Fpa-leu-Dap-4-ClPhe-nal-arg-Arg-arg-Arg-Dap] (Y[dV][dL][dY][Phe(4-F)][dL][Dap][Phe(4-Cl)][d2Nal][dR]R[dR]R[Dap]-NH2; linker N-7-14 via Trimesoyl)	Competition for Etf-1 binding was observed	only slightly reduced	1.19					
CC(C)C[C@H]1NC(=O)[C@H](CO)NC(=O)[C@H]2CCCN2C(=O)[C@H](CCC(N)=O)NC(=O)[C@H](Cc2c[nH]cn2)NC(=O)[C@H](Cc2ccc(O)cc2)NC(=O)c2cc3cc(c2)C(=O)NC[C@H](NC1=O)C(=O)N[C@@H](Cc1ccc(Cl)cc1)C(=O)N[C@H](Cc1ccc2ccccc2c1)C(=O)N[C@H](CCCNC(=N)N)C(=O)N[C@@H](CCCNC(=N)N)C(=O)N[C@H](CCCNC(=N)N)C(=O)N[C@@H](CCCNC(=N)N)C(=O)N[C@H](C(N)=O)CNC3=O [Peptide B7-16, TMA-Tyr-His-Gln-pro-Ser-leu-Dap-4-ClPhe-nal-arg-Arg-arg-Arg-Dap] (YHQ[dP]S[dL][Dap][Phe(4-Cl)][d2Nal][dR]R[dR]R[Dap]-NH2; linker N-7-14 via Trimesoyl)		significantly inhibited		2000 ± 200 nM	slightly reduced the cell viability	no cytotoxicity	significantly inhibited	
CC(C)C[C@H]1NC(=O)[C@H](Cc2ccc(F)cc2)NC(=O)[C@H](CCCN)NC(=O)[C@H](CC(=O)O)NC(=O)[C@H](CC(=O)O)NC(=O)[C@@H](C(C)C)NC(=O)[C@H](Cc2ccc(O)cc2)NC(=O)c2cc3cc(c2)C(=O)NC[C@H](NC1=O)C(=O)N[C@@H](Cc1ccc(Cl)cc1)C(=O)N[C@H](Cc1ccc2ccccc2c1)C(=O)N[C@H](CCCNC(=N)N)C(=O)N[C@@H](CCCNC(=N)N)C(=O)N[C@H](CCCNC(=N)N)C(=O)N[C@@H](CCCNC(=N)N)C(=O)N[C@H](C(N)=O)CNC3=O [Peptide B7-95-2, TMA-Tyr-val-Asp-Asp-Orn-Fpa-leu-Dap-4-ClPhe-nal-arg-Arg-arg-Arg-Dap] (Y[dV]DD[Orn][Phe(4-F)][dL][Dap][Phe(4-Cl)][d2Nal][dR]R[dR]R[Dap]-NH2; linker N-8-15 via Trimesoyl)	Competition for Etf-1 binding was observed	significantly inhibited		740 ± 60 nM			significantly inhibited	
CC(C)[C@H]1NC(=O)[C@@H](CCC(=O)O)NC(=O)c2cc3cc(c2)C(=O)NC[C@H](NC(=O)CNC(=O)[C@H](Cc2c[nH]c4ccccc24)NC(=O)[C@H](Cc2ccc(O)cc2)NC1=O)C(=O)N[C@@H](Cc1ccccc1)C(=O)N[C@H](Cc1ccc2ccccc2c1)C(=O)N[C@H](CCCNC(=N)N)C(=O)N[C@@H](CCCNC(=N)N)C(=O)N[C@H](CCCNC(=N)N)C(=O)N[C@@H](CCCNC(=N)N)C(=O)N[C@H](C(N)=O)CNC3=O [Peptide C8, TMA-glu-val-Tyr-Trp-Gly-Dap-Phe-nal-arg-Arg-arg-Arg-Dap] ([dE][dV]YWG[Dap]F[d2Nal][dR]R[dR]R[Dap]-NH2; linker N-6-13 via Trimesoyl)		significantly inhibited	0.14	5000 ± 1200 nM			significantly inhibited	disrupted BECN1 binding to Etf-1
